Results as given in patent US7803930B2, “Antisense modulation of apolipoprotein B-expression” (Isis Pharmaceuticals, Inc., priority 2002, dated 2010).

Key:
apolipoprotein B protein [1] = assay: Apolipoprotein B protein in primary Cynomolgous monkey hepatocytes, immunoblot; type: cell-based
Description: Additionally, protein was isolated from oligonucleotide-treated primary Cynomolgous monkey hepatocytes and subjected to immunoblot analysis to further assess apolipoprotein B protein expression. Immunoblotting was performed as described herein, using an antibody to human apolipoprotein B protein (US Biologicals, Swampscott, Mass.).

apolipoprotein B protein [2] = assay: Apolipoprotein B protein secreted from primary Cynomolgous monkey hepatocytes, ELISA; type: cell-based; conditions: primary Cynomolgous hepatocytes; 150 and 300 nM
Description: Apolipoprotein B protein secreted from primary Cynomolgous hepatocytes treated with 150 and 300 nM of oligonucleotide was measured by ELISA using an apolipoprotein B protein specific kit (ALerCHEK Inc., Portland, Me.). Each result represents the average of 3 experiments.
Apolipoprotein B protein secreted primary Cynomolgous hepatocytes treated with 50 and 150 nM of ISIS 315089 and ISIS 281625 was measured by ELISA using an apolipoprotein B protein specific kit (ALerCHEK Inc., Portland, Me.). Each result represents the average of 3 experiments.
Apolipoprotein B protein secreted from primary Cynomolgous hepatocytes treated with 50 and 150 nM of ISIS 271009 and ISIS 301027 was measured by ELISA using an apolipoprotein B protein specific kit (ALerCHEK Inc., Portland, Me.). Each result represents the average of 3 experiments.

[3] = tested on: Cynomolgous monkey apolipoprotein B mRNA; assay: Apolipoprotein B mRNA in primary Cynomolgous monkey hepatocytes, real-time PCR; type: cell-based; conditions: cynomolgous monkey primary hepatocytes; 10, 50, 150 or 300 nM
Outline: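 Primary cynomolgus hepatocytes treated with antisense oligonucleotides at 10, 50, 150 or 300 nM (some sets 10–150 nM) for 24 or 48 h, depending on the set. mRNA quantified by real-time PCR using human apoB and GAPDH primers/probes. Values are percent inhibition normalized to untreated cells, averaged over 2–6 experiments.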

PTEN = assay: ob/ob mice (Example 50): PTEN levels; type: in vivo, mouse; conditions: high fat high cholesterol diet, 50 mg/kg i.p. twice a week, six weeks
Description: (§1) Ob/ob mice receiving a high fat, high cholesterol diet (60% kcal fat supplemented with 0.15% cholesterol) were treated with one of several oligonucleotides to evaluate their effect on apolipoprotein B-related phenotypic endpoints in ob/ob mice. After overnight fasting, mice from each group were dosed intraperitoneally twice a week with 50 mg/kg of ISIS 147483 (SEQ ID NO: 79), or 147764 (SEQ ID NO: 109), or the controls ISIS 116847 (SEQ ID NO: 857), or 141923 (SEQ ID NO: 858), or saline for six weeks. At study termination and forty eight hours after the final injections, animals were sacrificed and evaluated for target mRNA levels in liver, cholesterol and triglyceride levels, liver enzyme levels, serum glucose levels, and PTEN levels.

[4] = ob/ob mice (Example 50): cholesterol, lipid, triglyceride, liver enzyme and glucose levels; type: in vivo, mouse; conditions: high fat high cholesterol diet, 50 mg/kg i.p. twice a week, six weeks
Description: as §1

apolipoprotein B mRNA [5] = assay: High fat fed mice, time-dependent effects and after cessation of dosing (Example 51): apolipoprotein B mRNA in liver; type: in vivo, mouse; conditions: liver, 50 mg/kg i.p. twice weekly
Description: (§2) In a further embodiment of the invention, the inhibition of apolipoprotein B mRNA in mice was compared to liver oligonucleotide concentration, total cholesterol, LDL-cholesterol and HDL-cholesterol. Male C57Bl/6 mice receiving a high fat diet (60% fat) were evaluated over the course of 6 weeks for the effects of treatment with twice weekly intraperitoneal injections of 50 mg/kg ISIS 147764 (SEQ ID NO: 109) or 50 mg/kg of the control oligonucleotide ISIS 141923 (SEQ ID NO: 858). Control animals received saline treatment. Animals were sacrificed after 2 days, 1, 2, 4 and 6 weeks of treatment. Each treatment group at each time point consisted of 8 mice.
(§3) Target expression in liver was measured by real-time PCR as described by other examples herein and is expressed as percent inhibition relative to saline treated mice. Total, LDL- and HDL-cholesterol levels were measured by routine clinical analysis using an Olympus Clinical Analyzer (Olympus America Inc., Melville, N.Y.) and are presented in mg/dL. Results from saline-treated animals are shown for comparison. Intact oligonucleotide in liver tissue was measured by capillary gel electrophoresis and is presented as micrograms of oligonucleotide per gram of tissue.
(§4) The oligonucleotide treatments described in this example were duplicated to investigate the extent to which effects of ISIS 147764 persist following cessation of treatment. Mice were treated as described, and sacrificed 1, 2, 4, 6 and 8 weeks following the cessation of oligonucleotide treatment.

[6] = High fat fed mice (Example 51): total, LDL- and HDL-cholesterol levels; type: in vivo, mouse; conditions: 50 mg/kg i.p. twice weekly
Description: as §2, §3, §4

[7] = High fat fed mice (Example 51): intact oligonucleotide in liver tissue by capillary gel electrophoresis; type: in vivo, mouse; conditions: 50 mg/kg i.p. twice weekly
Description: as §2, §3, §4

apolipoprotein B mRNA [8] = assay: ob/ob mice (Example 50): apolipoprotein B mRNA levels in liver; type: in vivo, mouse; conditions: liver, high fat high cholesterol diet, 50 mg/kg i.p. twice a week, six weeks
Description: as §1

[9] = high fat fed male C57Bl/6 mice, treatment period 1 week
[10] = high fat fed male C57Bl/6 mice, treatment period 2 weeks
[11] = high fat fed male C57Bl/6 mice, treatment period 4 weeks
[12] = high fat fed male C57Bl/6 mice, treatment period 6 weeks
[13] = high fat fed male C57Bl/6 mice, treatment period 2 days
[14] = high fat fed mice, 1 week after cessation of dosing
[15] = high fat fed mice, 2 weeks after cessation of dosing
[16] = high fat fed mice, 4 weeks after cessation of dosing
[17] = high fat fed mice, 6 weeks after cessation of dosing
[18] = high fat fed mice, 8 weeks after cessation of dosing

Substance: GCCTCAGTCTGCTTTACACC (gapmer: ten 2'-deoxy gap, five-nucleotide wings, wing chemistry not given here) [ISIS 326358]
- apolipoprotein B expression (immunoblot) (apolipoprotein B protein [1]): substantial reduction
- secretion of apolipoprotein B protein (ELISA) (apolipoprotein B protein [2]): decrease
- inhibition of apolipoprotein B mRNA expression [3]: in a dose- and time-dependent manner

Substance: 141923 (CCTTCCCTGAAGGTTCCTCC; listed as DNA, chemistry not given here) [compound 141923]
- mRNA % control PTEN (PTEN): 113.6 % control
- Glucose [4]: 328.5 mg/dL
- Lipoproteins CHOL [4]: 646.3 mg/dL
- Lipoproteins TRIG [4]: 196.5 mg/dL
- Liver Enzymes ALT [4]: 701.7 IU/L
- Liver Enzymes AST [4]: 329.3 IU/L
- % Inhibition apolipoprotein B mRNA (apolipoprotein B mRNA [5]; [9]): 4%
- % Inhibition apolipoprotein B mRNA (apolipoprotein B mRNA [5]; [10]): 7%
- % Inhibition apolipoprotein B mRNA (apolipoprotein B mRNA [5]; [11]): 0%
- % Inhibition apolipoprotein B mRNA (apolipoprotein B mRNA [5]; [12]): 0%
- % Inhibition apolipoprotein B mRNA (apolipoprotein B mRNA [5]; [13]): 9%
- % Inhibition apolipoprotein B mRNA (apolipoprotein B mRNA [5]; [14]): 15%
- % Inhibition apolipoprotein B mRNA (apolipoprotein B mRNA [5]; [15]): 2%
- % Inhibition apolipoprotein B mRNA (apolipoprotein B mRNA [5]; [16]): 7%
- % Inhibition apolipoprotein B mRNA (apolipoprotein B mRNA [5]; [17]): 11%
- % Inhibition apolipoprotein B mRNA (apolipoprotein B mRNA [5]; [18]): 7%
- HDL-cholesterol [6, 9]: 116 mg/dL
- LDL-cholesterol [6, 9]: 27 mg/dL
- Total cholesterol [6, 9]: 146 mg/dL
- HDL-cholesterol [6, 10]: 122 mg/dL
- LDL-cholesterol [6, 10]: 27 mg/dL
- Total cholesterol [6, 10]: 152 mg/dL
- HDL-cholesterol [6, 11]: 128 mg/dL
- LDL-cholesterol [6, 11]: 38 mg/dL
- Total cholesterol [6, 11]: 169 mg/dL
- HDL-cholesterol [6, 12]: 166 mg/dL
- LDL-cholesterol [6, 12]: 56 mg/dL
- Total cholesterol [6, 12]: 225 mg/dL
- HDL-cholesterol [6, 13]: 70 mg/dL
- LDL-cholesterol [6, 13]: 8 mg/dL
- Total cholesterol [6, 13]: 99 mg/dL
- HDL-cholesterol [6, 14]: 121 mg/dL
- LDL-cholesterol [6, 14]: 24 mg/dL
- Total cholesterol [6, 14]: 158 mg/dL
- HDL-cholesterol [6, 15]: 105 mg/dL
- LDL-cholesterol [6, 15]: 24 mg/dL
- Total cholesterol [6, 15]: 139 mg/dL
- HDL-cholesterol [6, 16]: 135 mg/dL
- LDL-cholesterol [6, 16]: 32 mg/dL
- Total cholesterol [6, 16]: 185 mg/dL
- HDL-cholesterol [6, 17]: 136 mg/dL
- LDL-cholesterol [6, 17]: 32 mg/dL
- Total cholesterol [6, 17]: 186 mg/dL
- HDL-cholesterol [6, 18]: 108 mg/dL
- LDL-cholesterol [6, 18]: 24 mg/dL
- Total cholesterol [6, 18]: 151 mg/dL
- Intact oligonucleotide [7, 9]: 61 µg/g
- Intact oligonucleotide [7, 10]: 152 µg/g
- Intact oligonucleotide [7, 11]: 261 µg/g
- Intact oligonucleotide [7, 12]: 631 µg/g
- Intact oligonucleotide [7, 13]: 58 µg/g
- Intact oligonucleotide [7, 14]: 297 µg/g
- Intact oligonucleotide [7, 15]: 250 µg/g
- Intact oligonucleotide [7, 16]: 207 µg/g
- Intact oligonucleotide [7, 17]: 212 µg/g
- Intact oligonucleotide [7, 18]: 128 µg/g
- mRNA % control ApoB (apolipoprotein B mRNA [8]): 100.0 % control
